Measurements: US12030877B2, “Prostaglandin E synthase inhibitors and methods for utilizing the same” (University of Kentucky Research Foundation, priority 2016, dated 2024)
Read-outs that look alike come from different tables or passages of the source.

Columns and labels:
[1] = target: T1, mPGES-1 Mouse enzyme (Mus musculus, UniProt Q9JM51); assay: mPGES-1 enzyme activity assay (PGE2 enzyme immunoassay), mouse enzyme; type: biochemical; details: for IC50: recombinant microsomal enzyme, means ± SD, triplicate; for inhibition at 10 µM: compound at a concentration of 10 μM, read-out: % inhibition of the compound against mPGES-1, Mouse enzyme
T1 construct: made in house; host or cells: FreeStyle 293-F cells, crude microsomal preparation
T1 sequence (Q9JM51 1-153): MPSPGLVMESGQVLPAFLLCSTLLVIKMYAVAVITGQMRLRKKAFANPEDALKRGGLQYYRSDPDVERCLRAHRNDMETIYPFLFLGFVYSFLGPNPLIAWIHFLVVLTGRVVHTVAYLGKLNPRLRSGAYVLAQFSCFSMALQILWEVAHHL
Method: (§1) Studies were conducted to characterize the inhibitory activity against recombinant mPGES-1 of the compounds synthesized in accordance with Examples 1-4, and disclosed herein.
(§2) Briefly, FreeStyle 293-F cells were cultured following manufacturer's manual in FreeStyle 293 expression medium on orbit rotate shaker in 8% CO2 incubator at 37° C. Cells were transfected with 1.5 μg/mL of mPGES-1/pcDNA3 construct using FreeStyle Max reagent at a cell density of 1×10^6 for 2 days. Transfected cells were collected, washed, and sonicated in TSES buffer (15 mM Tris-HCl, pH 8.0 plus 0.25 M sucrose, 0.1 mM EDTA and 1 mM DTT) on ice. The broken cells were first centrifuged at 12,500×g for 10 min. The supernatant was further centrifuged at 105,000×g for 1 hr at 4° C. The pellet was washed and homogenized in PBS buffer. The crude microsomal mPGES-1 preparation was aliquoted and stored at −80° C. The crude protein concentration was 8 mg/mL.
(§3) The enzyme activity assays were performed on ice in 1.5 ml microfuge tubes by using the expressed mPGES-1. The reaction mixture contained: 0.2 M Na2HPO4/NaH2PO4, pH 7.2, 10 μL; 0.1 M GSH, 2.5 μL; diluted microsomal enzyme (80 μg/mL), 1 μL; PGH2 (0.31 mM in DMF), 5 μL; 1 μL inhibitor; and H2O in a final reaction volume of 100 μL. PGH2 was stored in dry ice and used to initiate the reaction.
(§4) Compounds were incubated with the enzyme for 15 min at room temperature before the addition of cold PGH2 (1 μM final) to initiate the enzyme reaction. After 30 s, 10 μL of SnCl2 (40 mg/mL) in ethanol was added to stop the reaction. The nonenzymatic conversion of PGH2 to PGE2 was performed in the same buffer devoid of enzyme. The reaction mixture was placed on ice until PGE2 production was determined by the PGE2 enzyme immunoassay as described earlier. IC50 values of the inhibitors were calculated by using the GraphPad Prism 4.0 program. The results are set forth in the tables provided in Examples 7-10.

[2] = target: T2, mPGES-1 (Homo sapiens, UniProt O14684); assay: mPGES-1 enzyme activity assay (PGE2 enzyme immunoassay), human enzyme; type: biochemical; set-up: made in house; host or cells: FreeStyle 293-F cells, crude microsomal preparation; details: for IC50: recombinant microsomal enzyme, means ± SD, triplicate
T2 sequence (O14684 1-152): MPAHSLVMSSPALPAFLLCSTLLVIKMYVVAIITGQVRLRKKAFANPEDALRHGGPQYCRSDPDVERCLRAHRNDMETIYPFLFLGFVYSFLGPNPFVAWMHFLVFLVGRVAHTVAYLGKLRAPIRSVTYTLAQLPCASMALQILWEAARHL
Method: as §1, §2, §3, §4

[3] = read-out: IC50 against mPGES-1, Mouse enzyme
[4] = read-out: IC50 against mPGES-1, Human enzyme
[5] = IC50 against mPGES-1, Mouse enzyme
[6] = IC50 against mPGES-1, Human enzyme

| Compound | IC50 [1, 3] [nM] | IC50 [2, 4] [nM] | inhibition at 10 µM [1] [%] | other results |
| --- | --- | --- | --- | --- |
| O=C(O)CN1C(=O)S/C(=C2\C(=O)N(CCCc3ccccc3)c3ccccc32)C1=O [II-04] | 747 ± 163 | 2400 ± 132 | – | – |
| O=C(O)CN1C(=O)S/C(=C2\C(=O)N(CCCCc3ccccc3)c3ccccc32)C1=O [II-05] | – | 963 ± 87 | 61 | – |
| O=C(O)CN1C(=O)S/C(=C2\C(=O)N(CC3CCCCC3)c3ccccc32)C1=O [II-06] | 2730 ± 422 | 1270 ± 104 | – | – |
| O=C(O)CN1C(=O)S/C(=C2\C(=O)N(CCC3CCCCC3)c3ccccc32)C1=O [II-07] | – | 494 ± 32 | 39 | – |
| O=C(O)CN1C(=O)S/C(=C2\C(=O)N(CCCC3CCCCC3)c3ccccc32)C1=O [II-08] | 1520 ± 317 | 253 ± 30 | – | – |
| O=C(O)CN1C(=O)S/C(=C2\C(=O)N(CCCCC3CCCCC3)c3ccccc32)C1=O [II-09] | 947 ± 183 | 499 ± 108 | – | – |
| O=C(O)CN1C(=O)S/C(=C2\C(=O)N(CCCOc3ccccc3)c3ccccc32)C1=O [II-10] | – | 805 ± 100 | 41 | – |
| O=C(O)CN1C(=O)S/C(=C2\C(=O)N(CCCOc3ccc4ccccc4c3)c3ccccc32)C1=O [II-11] | 1020 ± 131 | 1680 ± 168 | – | – |
| CCCCCN1C(=O)/C(=C2\SC(=O)N(CC(=O)O)C2=O)c2ccccc21 [II-12] | – | 1660 ± 168 | 35 | – |
| CCCCCCN1C(=O)/C(=C2\SC(=O)N(CC(=O)O)C2=O)c2ccccc21 [II-13] | – | 1070 ± 116 | 57 | – |
| CCCCCCCN1C(=O)/C(=C2\SC(=O)N(CC(=O)O)C2=O)c2ccccc21 [II-14] | – | 324 ± 44 | 67 | – |
| CCCCCCCCN1C(=O)/C(=C2\SC(=O)N(CC(=O)O)C2=O)c2ccccc21 [II-15] | 2680 ± 302 | 314 ± 44 | – | – |
| CCCCCCCCCN1C(=O)/C(=C2\SC(=O)N(CC(=O)O)C2=O)c2ccccc21 [II-16] | 1400 ± 217 | 199 ± 32 | – | – |
| CCCCCCCCCCN1C(=O)/C(=C2\SC(=O)N(CC(=O)O)C2=O)c2ccccc21 [II-17] | 935 ± 135 | 217 ± 30 | – | – |
| O=C(O)CN1C(=O)S/C(=C2\C(=O)N(CC3CCCCC3)c3ccc(-c4ccccc4)cc32)C1=O [II-18] | 394 ± 58 | 221 ± 47 | – | – |
| O=C(O)CN1C(=O)S/C(=C2\C(=O)N(CC3CCCCC3)c3ccc(-c4ccc(-c5ccccc5)cc4)cc32)C1=O [II-19] | 1020 ± 162 | 154 ± 20 | – | – |
| O=C(O)CN1C(=O)S/C(=C2\C(=O)N(CC3CCCCC3)c3ccc(-c4ccc5ccccc5c4)cc32)C1=O [II-20] | 244 ± 31 | 531 ± 90 | – | – |
| O=C(O)CN1C(=O)S/C(=C2\C(=O)N(CC3CCCCC3)c3ccc(-c4ccc(C#Cc5ccccc5)cc4)cc32)C1=O [II-21] | 1960 ± 348 | 91 ± 23 | – | – |
| O=C(O)CN1C(=O)S/C(=C2\C(=O)N(CC3CCCCC3)c3ccc(-c4ccc(C#CC5CCCCC5)cc4)cc32)C1=O [II-22] | 685 ± 406 | 25 ± 5 | – | – |
| O=C(O)CN1C(=O)S/C(=C2\C(=O)Nc3ccc(-c4ccccc4)cc32)C1=O [II-23] | – | 8020 ± 1050 | 63 | – |
| O=C(O)CN1C(=O)S/C(=C2\C(=O)N(CCC3CCCCC3)c3ccc(-c4ccccc4)cc32)C1=O [II-24] | 777 ± 364 | 32 ± 6 | – | – |
| O=C(O)CN1C(=O)S/C(=C2\C(=O)N(CCCC3CCCCC3)c3ccc(-c4ccccc4)cc32)C1=O [II-25] | 1220 ± 430 | 16 ± 4 | – | – |
| O=C(O)CN1C(=O)S/C(=C2\C(=O)N(CCCCC3CCCCC3)c3ccc(-c4ccccc4)cc32)C1=O [II-26] | 1130 ± 244 | 13 ± 3 | – | – |
| O=C(O)CN1C(=O)S/C(=C2\C(=O)N(Cc3ccc(Cl)cc3)c3ccc(-c4ccccc4)cc32)C1=O [II-27] | 13200 ± 5080 | 54 ± 14 | – | – |
| O=C1NC(=O)/C(=C2/C(=O)N(CCCC3CCCCC3)c3ccccc32)S1 [II-28] | – | 1390 ± 273 | 0 | – |
| O=C1NC(=S)S/C1=C1\C(=O)N(CCCC2CCCCC2)c2ccccc21 [II-29] | – | 1260 ± 335 | 29 | – |

| Compound | IC50 [1, 3] [nM] | IC50 [2, 4] [nM] | inhibition at 10 µM [1] [%] | other results |
| --- | --- | --- | --- | --- |
| O=C(O)CN1C(=O)/C(=C2\SC(=S)NC2=O)c2ccccc21 [II-30] | – | 211 ± 67 | 6.1 | – |
| O=C(O)CN1C(=O)/C(=C2\SC(=O)N(CCCCc3ccccc3)C2=O)c2ccccc21 [II-31] | – | 962 ± 159 | 64 | – |
| O=C(O)CN1C(=O)/C(=C2\SC(=O)N(CCCCC3CCCCC3)C2=O)c2ccccc21 [II-32] | – | 2560 ± 442 | 44 | – |
| O=C(CCCN1C(=O)C=CC1=O)Nc1ccc2c(c1)Cc1ccccc1-2 [III-01] | – | 1920 ± 300 | 48 | – |
| O=C(CCCCCN1C(=O)C=CC1=O)Nc1ccc2c(c1)Cc1ccccc1-2 [III-02] | 2880 ± 496 | 613 ± 103 | – | – |
| O=C(CCCN1C(=O)C=CC1=O)Nc1ccc(OCCCC2CCCCC2)cc1 [III-03] | – | – | 55 | inhibition at 10 µM ([2]; compound at a concentration of 10 μM, read-out: % inhibition of the compound against mPGES-1, Human enzyme): 63% |
| O=C1S/C(=C\c2ccc(Oc3cc([N+](=O)[O-])c([N+](=O)[O-])cc3F)c([N+](=O)[O-])c2)C(=O)N1CCCCC1CCCCC1 [IV-01] | – | 296 ± 48 | 91 | – |
| CCOc1ccc(-c2nn(-c3ccc(Cl)cc3)cc2C=C2C(=O)NC(=O)NC2=O)cc1 [VI-01] | – | 265 ± 96 | 28 | – |
| CCCCOc1ccc(-c2nn(-c3ccccc3)cc2C=C2C(=O)NC(=O)NC2=O)cc1 [VI-02] | – | 212 ± 34 | – | IC50 [1, 5]: 2570 ± 628 nM |
| CCCCOc1ccc(-c2nn(-c3ccc(Cl)cc3)cc2C=C2C(=O)NC(=O)NC2=O)cc1 [VI-03] | – | 169 ± 41 | – | IC50 [1, 5]: 357 ± 75 nM |
| CCCCCCOc1ccc(-c2nn(-c3ccc(Cl)cc3)cc2C=C2C(=O)NC(=O)NC2=O)cc1 [VI-04] | – | 285 ± 65 | 46 | – |
| CCCCCCCCOc1ccc(-c2nn(-c3ccccc3)cc2C=C2C(=O)NC(=O)NC2=O)cc1 [VI-05] | – | – | – | IC50 [1, 5]: 2160 ± 188 nM; IC50 [2, 6]: 323 ± 52 nM |
| CCCCCCCCOc1ccc(-c2nn(-c3ccc(Cl)cc3)cc2C=C2C(=O)NC(=O)NC2=O)cc1 [VI-06] | – | 361 ± 51 | – | IC50 [1, 5]: 740 ± 108 nM |
| CCCCCCCCCCOc1ccc(-c2nn(-c3ccccc3)cc2C=C2C(=O)NC(=O)NC2=O)cc1 [VI-07] | – | – | 21 | IC50 [2, 6]: 375 ± 127 nM |
| CCCCCCCCCCOc1ccc(-c2nn(-c3ccc(Cl)cc3)cc2C=C2C(=O)NC(=O)NC2=O)cc1 [VI-08] | – | 294 ± 83 | 24 | – |
| O=C1NC(=O)C(=Cc2cn(-c3ccccc3)nc2-c2ccc(OCc3ccccc3)cc2)C(=O)N1 [VI-09] | – | – | 0 | IC50 [2, 6]: 598 ± 142 nM |
| CCOc1ccc(-c2nn(-c3ccc(Cl)cc3)cc2C=C2C(=O)NC(=S)NC2=O)cc1 [VI-10] | – | 95 ± 16 | 46 | – |
| CCCCOc1ccc(-c2nn(-c3ccccc3)cc2C=C2C(=O)NC(=S)NC2=O)cc1 [VI-11] | – | 92 ± 20 | – | IC50 [1, 5]: 1260 ± 138 nM |
| CCCCOc1ccc(-c2nn(-c3ccc(Cl)cc3)cc2C=C2C(=O)NC(=S)NC2=O)cc1 [VI-12] | – | 56 ± 10 | – | IC50 [1, 5]: 445 ± 83 nM |
| CCCCCCOc1ccc(-c2nn(-c3ccc(Cl)cc3)cc2C=C2C(=O)NC(=S)NC2=O)cc1 [VI-13] | – | 52 ± 15 | – | IC50 [1, 5]: 1770 ± 1160 nM |
| CCCCCCCCOc1ccc(-c2nn(-c3ccccc3)cc2C=C2C(=O)NC(=S)NC2=O)cc1 [VI-14] | – | – | – | IC50 [1, 5]: 1130 ± 131 nM; IC50 [2, 6]: 113 ± 23 nM |
| CCCCCCCCOc1ccc(-c2nn(-c3ccc(Cl)cc3)cc2C=C2C(=O)NC(=S)NC2=O)cc1 [VI-15] | – | 92 ± 19 | – | IC50 [1, 5]: 316 ± 30 nM |
| CCCCCCCCCCOc1ccc(-c2nn(-c3ccccc3)cc2C=C2C(=O)NC(=S)NC2=O)cc1 [VI-16] | – | – | 50 | IC50 [2, 6]: 188 ± 31 nM |
| CCCCCCCCCCOc1ccc(-c2nn(-c3ccc(Cl)cc3)cc2C=C2C(=O)NC(=S)NC2=O)cc1 [VI-17] | – | 93 ± 14 | 56 | – |
| O=C1NC(=S)NC(=O)C1=Cc1cn(-c2ccccc2)nc1-c1ccc(OCc2ccccc2)cc1 [VI-18] | – | – | 25 | IC50 [2, 6]: 797 ± 160 nM |
